# Reference: US4087461A, “Anti-androgenic steroids” (The Johns Hopkins University, priority 1977, dated 1978)
# What was measured:
# immature uterus = assay: study of estrogenic activity (uterine weight of immature mice); details: 100 μg total dose over three days, sc
# Description: The animals were housed in a temperature controlled room under a constant lighting schedule and maintained on a diet of Charles River Rat Formula and water ad libitum. The diet of the hypophy-sectomized animals was supplemented with organges.
# On the fourth day the uteri were removed and weighed.
# Thus, immature female mice received estryne at doses up to a maximum of 100 μg total dose over three days, and the wet weight of the uteri were determined.
# [1] = test system: androgen biosynthesis stimulated by human chorionic gonadotropin; assay: study in hypophysectomized rats stimulated with human chorionic gonadotropin: ventral prostate weight; type: in vivo, hypophysectomized male Sprague-Dawley rats
# Description: In order to assess the action of the estryne in the presence of exogenous stimulation of androgen synthesis, hypophysectomized male rats received estryne 3.0 mg (0.2 ml sesame oil) sc and/or human chorionic gonadotropin 2 units and 4 units (0.9% saline) sc daily for 7 days. Sacrifice and weighing of the organs was performed on the eighth day.
# The wet weight of the ventral prostate was decreased (20-25%) in hypophysectomized animal receiving estryne (12mg/kg body weight) and HGG (2 units) as compared to controls receiving just HGG (2 units).
# [2] = test system: competition with testosterone at the target tissue; assay: study in castrate rats receiving testosterone propionate: prostatic weight; type: in vivo, male Sprague-Dawley rats (castrated); details: estryne 12mg/kg i.p. and testosterone propionate 0.3mg daily for seven days; castrated 10 days prior
# Description: To determine if the estryne competes with testosterone at the target tissue rats were orchiectomized under ether anesthesia via the scrotal route 10 days prior to treatment. Testosterone propionate 0.3 mg (0.2 ml sesame oil) was administered daily for 7 days subcutaneously. Estryne 12 mg/kg (0.2 ml propylene glycol) was given daily for 7 days interperitioneally. Control groups received either testosterone propionate (0.3 mg) or carrier oil daily for 7 days. The animals were sacrificed on the eighth day and the organs were weighed.
# Animals castrated 10 days prior to treatment received both estryne (12mg/kg weight) and testosterone propionate (0.3mg) daily for seven days.
structure (smiles),measurement,setting,value
"C[C@]12CC[C@@H]3C(=O)CCC(=O)CC#CC[C@H]3[C@@H]1CCC2=O [Compound 1, 5,10-secoestr-5-yne-3,10,17-trione]",stimulation of the immature uterus,immature uterus,no stimulation of the immature uterus
same,decrease in wet weight of the ventral prostate,"[1]; estryne 12mg/kg body weight and HCG 2 units, vs controls receiving HCG 2 units only, 7 days",20-25%
same,effect on ventral prostate weight at higher doses of HCG,"[1]; higher doses of HCG, in words",less pronounced
same,depression of prostatic weight,[2],No significant depression of prostatic weight
